Results reported in US20110092476A1, “Bicycloheteroaryl compounds as P2X7 modulators and uses thereof” (Renovis, Inc., priority 2006, published 2011).
In brackets after ≈: the same amount, converted by molar mass. Like-named read-outs stand apart in the source and are kept apart here.

Experiments:
[1] = Half-life in human liver microsomes (HLM); conditions: pH 7.4
Protocol: Test compounds (1 μM) are incubated with 3.3 mM MgCl2 and 0.78 mg/mL HLM (HL101) in 100 mM potassium phosphate buffer (pH 7.4) at 37° C. on the 96-deep well plate. The reaction mixture is split into two groups, a non-P450 and a P450 group. NADPH is only added to the reaction mixture of the P450 group. An aliquot of samples of P450 group is collected at 0, 10, 30, and 60 min time point, where 0 min time point indicated the time when NADPH is added into the reaction mixture of P450 group. […] Collected aliquots are extracted with acetonitrile solution containing an internal standard. […] The compound concentration in supernatant is measured by LC/MS/MS system.
The half-life value is obtained by plotting the natural logarithm of the peak area ratio of compounds/internal standard versus time. The slope of the line of best fit through the points yields the rate of metabolism (k). This is converted to a half-life value using following equations:

[2] = target: T1, P2X7 receptor (Homo sapiens, UniProt Q99572); assay: IL-1β release assay in differentiated THP-1 cells stimulated with BzATP (Example 9); type: cell-based; conditions: BzATP 250 uM; for inhibition at 0.3 µM: differentiated THP-1 cells, read-out: IL-1β % Inhib. @ 0.3 or 0.1 uM; for IC50: THP-1 cells, IL-1β by ELISA
T1 construct: host or cells: THP-1 cells differentiated with LPS and IFN-γ
T1 sequence (Q99572 1-595): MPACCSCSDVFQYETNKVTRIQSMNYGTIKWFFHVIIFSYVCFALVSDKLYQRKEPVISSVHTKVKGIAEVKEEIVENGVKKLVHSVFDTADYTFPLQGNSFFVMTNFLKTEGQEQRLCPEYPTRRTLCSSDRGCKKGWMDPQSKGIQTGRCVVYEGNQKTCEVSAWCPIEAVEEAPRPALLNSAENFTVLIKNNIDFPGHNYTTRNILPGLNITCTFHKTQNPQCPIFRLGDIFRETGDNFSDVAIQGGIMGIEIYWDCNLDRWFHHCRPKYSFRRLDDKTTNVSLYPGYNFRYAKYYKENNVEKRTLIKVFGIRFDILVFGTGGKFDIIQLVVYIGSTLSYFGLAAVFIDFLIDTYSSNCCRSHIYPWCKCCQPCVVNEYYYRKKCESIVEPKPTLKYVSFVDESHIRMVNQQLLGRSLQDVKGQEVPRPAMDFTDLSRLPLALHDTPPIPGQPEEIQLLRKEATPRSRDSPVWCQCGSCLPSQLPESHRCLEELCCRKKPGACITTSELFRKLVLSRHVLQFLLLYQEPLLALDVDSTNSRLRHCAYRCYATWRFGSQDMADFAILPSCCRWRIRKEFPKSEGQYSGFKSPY
Method in brief: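 THP-1 cells differentiated 16 h with 100 ng/mL LPS and 100 ng/mL IFN-γ, primed 2 h with fresh LPS, pretreated 30 min with compound, then stimulated 45 min with 250 uM BzATP (final). Supernatant IL-1β measured by ELISA; background-adjusted percent inhibition fitted to a four-parameter logistic for IC50.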

[3] = Pharmacokinetic evaluation following intravenous and oral administration in rats (oral bioavailability); type: in vivo, rat; conditions: male Sprague-Dawley rats, PO 1 to 5 mg/kg vs IV 1 mg/kg, AUCinf dose-normalized
Protocol: Male Sprague-Dawley rats are acclimatized for at least 24 hours prior to experiment initiation. During acclimation period, all animals receive food and water ad libitum. However, food but not water is removed from the animal's cages at least 12 hours before initiation of the experiment. During the first 3 hours of experimentation, the animals receive only water ad libitum. At least three animals each are tested for intravenous and oral dosage. For intravenous formulation, compounds were dissolved (0.25 to 1 mg/mL) in a mixture of 3% dimethyl sulfoxide, 40% PEG 400 and the rest percentage of 40% Captisol in water (w/v). The animals are weighed before dosing. The determined body weight is used to calculate the dose volume for each animal.
Dose volume (mL/kg)=1 mg/kg/formulation concentration (mg/mL)
In instances where the formulation concentrations were less than 0.5 mg/mL, the dosing volume is about 2 mL/kg.
PO rats are typically dosed through oral gavage following the same dose volume formula as IV to achieve a dose level of 1 to 5 mg/kg. […] About 250 uL of blood is obtained at each time point from the animal. Equal volumes of 0.9% normal saline are replaced to prevent dehydration. The whole blood samples are maintained on ice until centrifugation. Blood samples are then centrifuged at 14,000 rpm for 10 minutes at 4° C. and the upper plasma layer transferred into a clean vial and stored at −80° C. The resulting plasma samples are then analyzed by liquid chromatography-tandem mass spectrometry. Following the measurement of plasma samples and dosing solutions, plasma concentration-time curve is plotted. Plasma exposure is calculated as the area under the concentration-time curve extrapolated to time infinite (AUinf). The AUCinf is averaged and the oral bioavailability (% F) for individual animal is calculated as:
AUCinf (PO)/AUCinf (IV), normalized to their respective dose levels. The % F is reported as the mean % F of all animals dosed orally with the compound of the invention at the specified level (see Table 4 below).
For the purpose of Table 4, oral bioavailability of each compound is expressed as follows: […]

[4] = Determination of aqueous (kinetic) solubility; type: physicochemical; conditions: aqueous buffer, kinetic from dmso stock, buffer pH 7.4
Protocol: The mixture was vortexed for 1 hour and equilibrated overnight at room temperature. The mixture was filtered through a saturated filter and the filtrate was analyzed by LC/MS/MS.
For the purpose of Table 5, solubility of each compound is expressed as follows: […]

Row | Compound | half-life at 1 μM [1] [h] | inhibition at 0.3 µM ([2]; 0.3 μM compound (symbols +)) [%] | Oral Bioavailability F (%) [3] | solubility [4] [µM] | inhibition at 0.3 µM ([2]; 0.3 μM compound, "+" symbols) [%] | IC50 [2] [nM] | inhibition at 0.3 µM ([2]; "+" symbols = compound at 0.3 μM) [%]
1 | O=C(Cc1ccc(Cl)cc1)Nc1cccc2c(=O)n(CCO)ccc12 [Compound 4] | 1.97 | 26 to 50 | ++++ (>75% F) |  |  |  | 
2 | O=C(Cc1ccc(Cl)c(Cl)c1)Nc1cccc2c(=O)n(CCO)ccc12 [Compound 8] | 1.41 | > 76 | + (0-25% F) |  |  |  | 
3 | O=C(CCc1cc(C(F)(F)F)ccc1C(F)(F)F)Nc1cccc2c(=O)n(CCO)ccc12 [Compound 62] | 0.37 | > 76 | + (0-25% F) | < 25 |  |  | 
4 | O=C(Cc1ccc(Cl)c(C(F)(F)F)c1)Nc1cccc2c(=O)n(C(CO)CO)ccc12 [Compound 81, 2-(4-Chloro-3-trifluoromethyl-phenyl)-N-[2-(2-hydroxy-1-hydroxymethyl-ethyl)-1-oxo-1,2-dihydro-isoquinolin-5-yl]-acetamide] | 0.72 | > 76 | + (0-25% F) | > 75 |  |  | 
5 | O=C(Cc1ccc(Cl)c(C(F)(F)F)c1)Nc1cccc2c(=O)n(C[C@@H]3CCCN3)ccc12 [Compound 232, 2-(4-Chloro-3-trifluoromethyl-phenyl)-N-(1-oxo-2-(S)-1-pyrrolidin-2-ylmethyl-1,2-dihydro-isoquinolin-5-yl)-acetamide] | 7.37 |  |  |  | > 76 |  | 
6 | C[C@@H](C(N)=O)n1ccc2c(NC(=O)Cc3ccc(Cl)c(Cl)c3)cccc2c1=O [Compound 236, (S)-2-{5-[2-(3,4-Dichloro-phenyl)-acetylamino]-1-oxo-1H-isoquinolin-2-yl}-propionamide] | 0.97 |  | + (0-25% F) |  | > 76 |  | 
7 | C[C@H](C(N)=O)n1ccc2c(NC(=O)Cc3ccc(Cl)c(C(F)(F)F)c3)cccc2c1=O [Compound 238, (R)-2-{5-[2-(4-Chloro-3-trifluoromethyl-phenyl)-acetylamino]-1-oxo-1H-isoquinolin-2-yl}-propionamide] | 1.59 |  | + (0-25% F) |  | > 76 |  | 
8 | CC(C(=O)Nc1cccc2c(=O)n([C@H](C)C(N)=O)ccc12)c1ccc(Cl)cc1 (some centres unmarked) [Compound 247] | 2.11 |  | ++ (26-50% F) |  | > 76 |  | 
9 | NC(=O)[C@H](CO)n1ccc2c(NC(=O)Cc3ccc(Cl)c(C(F)(F)F)c3)cccc2c1=O [Compound 250, (S)-2-{5-[2-(4-Chloro-3-trifluoromethyl-phenyl)-acetylamino]-1-oxo-1H-isoquinolin-2-yl}-3-hydroxy-propionamide] | 0.9 |  |  | > 75 | > 76 |  | 
10 | CC(C(=O)Nc1cccc2c(=O)n([C@H](C)C(N)=O)ccc12)c1ccc(Cl)c(Cl)c1 (some centres unmarked) [Compound 254] | 1.46 |  | + (0-25% F) | 26 to 50 (≈ 11.2 to 21.6 µg/mL) | > 76 |  | 
11 | C[C@H](C(N)=O)n1ccc2c(NC(=O)Cc3ccc(Cl)cc3)cccc2c1=O [Compound 256] | 1.29 |  | + (0-25% F) | < 25 | > 76 |  | 
12 | C[C@H](C(=O)Nc1cccc2c(=O)n([C@H](C)C(N)=O)ccc12)c1ccc(Cl)cc1 [Compound 263] | 2.31 |  | ++ (26-50% F) | > 75 | > 76 |  | 
13 | C[C@H](C(N)=O)n1ccc2c(NC(=O)Cc3cccc(C(F)(F)F)c3F)cccc2c1=O [Compound 285] | 1.24 |  | ++ (26-50% F) |  | > 76 |  | 
14 | C[C@H](C(N)=O)n1ccc2c(NC(=O)Cc3ccc(Cl)cc3F)cccc2c1=O [Compound 290] | 1.64 |  | + (0-25% F) |  | > 76 |  | 
15 | C[C@H](C(N)=O)n1ccc2c(NC(=O)Cc3ccc(F)c(Br)c3)cccc2c1=O [Compound 307] |  |  |  | < 25 | > 76 |  | 

Next, values leading:

Row | half-life at 1 μM [1] [h] | inhibition at 0.3 µM ([2]; 0.3 μM compound (symbols +)) [%] | Oral Bioavailability F (%) [3] | solubility [4] [µM] | inhibition at 0.3 µM ([2]; 0.3 μM compound, "+" symbols) [%] | IC50 [2] [nM] | inhibition at 0.3 µM ([2]; "+" symbols = compound at 0.3 μM) [%] | Compound
16 | 1.22 |  | +++ (51-75% F) |  | > 76 |  |  | C[C@H](CO)n1ccc2c(NC(=O)Cc3ccc(C(F)(F)F)cc3)cccc2c1=O [Compound 319]
17 |  |  |  | 51 to 75 (≈ 21.4 to 31.4 µg/mL) | > 76 |  |  | C[C@H](CO)n1ccc2c(NC(=O)[C@H](C)c3ccc(Cl)c(Cl)c3)cccc2c1=O [Compound 320]
18 |  |  |  | > 75 | > 76 |  |  | C[C@H](CO)n1ccc2c(NC(=O)Cc3ccc(Cl)c(Cl)c3)cccc2c1=O [Compound 333, 2-(3,4-Dichloro-phenyl)-N-[2-((R)-2-hydroxy-1-methyl-ethyl)-1-oxo-1,2-dihydro-isoquinolin-5-yl]-acetamide]
19 |  |  |  | < 25 | > 76 |  |  | CC(C(=O)Nc1cccc2c(=O)n([C@H](C)C(N)=O)ccc12)c1cccc(C(F)(F)F)c1F (some centres unmarked) [Compound 337]
20 | 1.16 |  | + (0-25% F) |  | > 76 |  |  | C[C@H](C(N)=O)n1ccc2c(NC(=O)Cc3cccc(C(F)(F)F)c3F)c(Cl)ccc2c1=O [Compound 342]
21 |  |  |  | > 75 | > 76 |  |  | C[C@H](CO)n1ccc2c(NC(=O)Cc3ccc(C(F)(F)F)cc3C(F)(F)F)cccc2c1=O [Compound 361]
22 | 0.97 |  | ++ (26-50% F) |  | > 76 |  |  | C[C@H](CO)n1ccc2c(NC(=O)Cc3ccc(Cl)c(C(F)(F)F)c3)cccc2c1=O [Compound 362]
23 | 3.15 |  | ++++ (>75% F) |  | > 76 |  |  | C[C@H](CO)n1ccc2c(NC(=O)Cc3ccc(C(F)(F)F)cc3)c(Cl)ccc2c1=O [Compound 364]
24 | 0.55 |  | + (0-25% F) |  | > 76 |  |  | CC(C)(CO)n1ccc2c(NC(=O)Cc3ccc(Cl)c(C(F)(F)F)c3)cccc2c1=O [Compound 369, 2-(4-Chloro-3-trifluoromethyl-phenyl)-N-[2-(2-hydroxy-1,1-dimethyl-ethyl)-1-oxo-1,2-dihydro-isoquinolin-5-yl]-acetamide]
25 | 1.34 |  | +++ (51-75% F) |  | > 76 |  |  | C[C@H](CO)n1ccc2c(NC(=O)Cc3ccc(Cl)c(F)c3)c(Cl)ccc2c1=O [Compound 382]
26 |  |  |  | > 75 | > 76 | 9.44 |  | Cc1ccc2c(=O)n([C@H](C)CO)ccc2c1NC(=O)Cc1cccc(C(F)(F)F)c1F [Compound 395]
27 |  |  |  | 51 to 75 (≈ 21.3 to 31.4 µg/mL) | > 76 | 65.1 |  | Cc1ccc2c(=O)n([C@H](C)CO)ccc2c1NC(=O)Cc1ccc(C(F)(F)F)cc1 [Compound 397]
28 |  |  |  | > 75 |  | 5.38 | > 76 | Cc1ccc2c(=O)n([C@H](C)CO)ccc2c1NC(=O)Cc1ccc(Cl)c(F)c1 [Compound 398]
